Reference: US9101137B2 (priority 2011, dated 2015)
Where two headings read alike, the source gives them in different places.

What was measured:
Type in all cases: in vivo, Magnaporthe grisea
[1] = system: rice blast disease; settings: application concentration 20 ppm; rice (Nanatsuboshi), spray; lesion area after 5 days
[2] = system: rice blast disease; settings: application concentration 50 ppm; rice (Nanatsuboshi), spray; lesion area after 6 days
[3] = system: rice blast disease; settings: application concentration 10 ppm; rice (Nanatsuboshi), spray; lesion area after 6 days; average of duplicate

## COC(=O)NCc1cc(/C(C)=N/OCc2cccc(C)n2)ccc1Cl [Pyribencarb, pyribencarb]
[1]
  Control value: 40.0
[2]
  Control value: 86.0
[3]
  Control value: 18.8
